pKi: −log10 of the molar value. Bridge positions count the residues as written; N and C are the ends. Square brackets hold non-standard residues; d marks the D form. Peptide text beside a SMILES is read from it. NMeR = CN[C@@H](CCCNC(=N)N)C(=O)O
Molecular target: Integrin alpha-IIb/beta-3 (Homo sapiens, UniProt P05106+P08514)
Test: Inhibition of [3H]-107260 binding to purified GPIIb/IIIa of human platelets

Sequence of Integrin alpha-IIb/beta-3 (P05106 27-788 limits assumed): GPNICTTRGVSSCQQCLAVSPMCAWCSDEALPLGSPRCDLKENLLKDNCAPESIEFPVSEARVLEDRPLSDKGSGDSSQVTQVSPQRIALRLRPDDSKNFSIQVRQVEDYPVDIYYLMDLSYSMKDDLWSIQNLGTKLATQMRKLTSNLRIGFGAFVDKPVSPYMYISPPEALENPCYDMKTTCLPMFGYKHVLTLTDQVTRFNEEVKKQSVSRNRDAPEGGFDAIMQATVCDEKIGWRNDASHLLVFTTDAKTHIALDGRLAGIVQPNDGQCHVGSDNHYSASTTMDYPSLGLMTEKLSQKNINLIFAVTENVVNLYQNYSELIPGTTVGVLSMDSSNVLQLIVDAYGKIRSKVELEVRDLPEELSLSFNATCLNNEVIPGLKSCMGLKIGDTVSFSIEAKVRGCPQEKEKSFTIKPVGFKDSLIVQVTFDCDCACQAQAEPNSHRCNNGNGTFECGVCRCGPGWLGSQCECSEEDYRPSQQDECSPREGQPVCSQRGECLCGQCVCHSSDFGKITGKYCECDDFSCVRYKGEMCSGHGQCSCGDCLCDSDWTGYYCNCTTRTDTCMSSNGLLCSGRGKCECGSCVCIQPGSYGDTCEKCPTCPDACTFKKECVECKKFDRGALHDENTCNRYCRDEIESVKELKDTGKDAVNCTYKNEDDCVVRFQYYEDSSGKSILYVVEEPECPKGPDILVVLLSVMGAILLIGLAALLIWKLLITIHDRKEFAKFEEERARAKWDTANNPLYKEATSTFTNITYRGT
Sequence of Integrin alpha-IIb/beta-3 (P08514 32-887 limits assumed): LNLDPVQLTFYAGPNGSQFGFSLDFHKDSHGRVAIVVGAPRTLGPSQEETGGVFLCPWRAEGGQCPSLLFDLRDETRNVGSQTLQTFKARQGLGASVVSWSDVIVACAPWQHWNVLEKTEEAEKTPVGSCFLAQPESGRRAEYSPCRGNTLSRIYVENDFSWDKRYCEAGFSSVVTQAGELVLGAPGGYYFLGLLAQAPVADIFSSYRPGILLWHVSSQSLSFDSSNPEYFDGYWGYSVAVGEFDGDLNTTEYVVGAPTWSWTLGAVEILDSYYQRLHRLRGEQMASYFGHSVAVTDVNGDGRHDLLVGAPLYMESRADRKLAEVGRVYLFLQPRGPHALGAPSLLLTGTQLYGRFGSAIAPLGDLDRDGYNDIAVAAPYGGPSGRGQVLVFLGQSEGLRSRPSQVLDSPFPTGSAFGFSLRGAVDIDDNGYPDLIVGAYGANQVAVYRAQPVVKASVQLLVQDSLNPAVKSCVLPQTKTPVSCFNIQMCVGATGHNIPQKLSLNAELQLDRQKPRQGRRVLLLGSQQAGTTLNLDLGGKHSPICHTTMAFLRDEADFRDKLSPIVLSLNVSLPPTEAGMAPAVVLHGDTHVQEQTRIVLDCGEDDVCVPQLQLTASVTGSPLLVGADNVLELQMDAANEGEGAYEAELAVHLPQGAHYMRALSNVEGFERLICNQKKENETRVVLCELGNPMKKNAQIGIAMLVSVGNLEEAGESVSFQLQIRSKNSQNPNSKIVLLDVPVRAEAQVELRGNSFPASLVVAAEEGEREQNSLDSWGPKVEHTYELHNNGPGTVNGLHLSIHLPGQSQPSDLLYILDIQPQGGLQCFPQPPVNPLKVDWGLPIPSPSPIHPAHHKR
Sequence of Integrin alpha-IIb/beta-3 (P08514 891-1039 limits assumed): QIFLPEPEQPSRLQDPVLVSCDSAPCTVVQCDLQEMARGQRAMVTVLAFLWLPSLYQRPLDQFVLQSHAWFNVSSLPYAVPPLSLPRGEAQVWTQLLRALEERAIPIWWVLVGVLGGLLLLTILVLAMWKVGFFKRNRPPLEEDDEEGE

pKi | SMILES
6.57 | CC(=O)N(C)C(CCCNC(=N)N)C(=O)NCC1=CC(CC(=O)O)C(=O)N(c2ccccc2)CC1 (configuration not stated)
6.76 | CC(=O)N[C@H]1CSSC[C@@H](C(N)=O)NC(=O)[C@H](CC(=O)O)NC(=O)CNC(=O)[C@H](CCCN=C(N)N)N(C)C1=O (Ac-C[NMeR]GDC-NH2; disulfide 1-5)
